# Source: publication PMC5372560, “D-Amino Acid Position Influences the Anticancer Activity of Galaxamide Analogs: An Apoptotic Mechanism Study” (International Journal of Molecular Sciences, 2017)
# Where “and” joins values, the source holds several entries; their conditions need not be identical. Equal entries are not always repeated. Where a SMILES comes first, the peptide text is derived from it. [ ]: non-standard residue; d: D form. NMeL = CN[C@@H](CC(C)C)C(=O)O
# Columns and labels:
# [1] = test system: human breast cancer cells (MCF-7); format: cell-based; settings: 48 h
# Method: (§1) Human hepatocellular cells (HepG2), human breast cancer cells (MCF-7), human breast adenocarcinoma cells (MDA-MB-435) and a human cervical carcinoma cell line (Hela) were selected as our in vitro cancerous cell models. The cells were all cultured in DMEM medium containing 10% fetal bovine serum, 1% penicillin-streptomycin and antifungal agent, incubated at 37 °C with 5% CO2 and 90% humidity. The cytotoxicity of Galaxamide and its analogs on the four cancerous cells was evaluated using the MTT method. […] After that, 20 µL MTT reagents were added to each well and incubated between 3–5 h according to the nature of cells; the color intensity of the cell culture at 570 nm was measured using a microplate spectrophotometer. Finally, the cell viability was calculated accordingly. Note: […]
# [2] = test system: human cervical carcinoma cell line (Hela); format: cell-based; settings: 48 h
# Method: as §1
# [3] = test system: human breast adenocarcinoma cells (MDA-MB-435); format: cell-based; settings: 48 h
# Method: as §1
# [4] = test system: human hepatocellular cells (HepG2); format: cell-based; settings: 48 h
# Method: as §1
# [5] = test system: HepG2 cells; test: Cell cycle analysis by propidium iodide staining, flow cytometry; format: cell-based, human; settings: 48 h, PI staining
# Method: In particular, HepG2 cells were exposed to Galaxamide, Analog-4 and Analog-6 with concentrations of 0, 5, 10 and 15 µg/mL for 48 h. Generally, treatment with Galaxamide, Analog-4 and -6 all caused changes in the cell cycle of HepG2 cells, mainly in the sub-G1 stage, where a subdiploid peak was detected, indicating their apoptotic effects on HepG2 cells.
# (§2) HepG2 cells were seeded in 6-well tissue culture plates at a concentration of 1 × 10^5 cells/well. Galaxamide and its analogs with a concentration of 0, 5, 10 and 15 µg/mL were added to the cell cultures and incubated for 48 h. After that, 5 µL Annexin V-fluorescein isothiocyanate (FITC) and 5 µL of PI were added for dual staining of the cells and analyzed by FACScan flow cytometry. Cell cycle and apoptotic cells were determined by counting the FITC-positive and PI-negative fractions.
# [6] = test system: HepG2 cells; test: Hoechst 33342 staining, nuclear morphology; format: cell-based, human; settings: HepG2, increasing concentration up to 15 µg/mL, 48 h, fluorescence microscope
# Method: We then investigated the effect of Galaxamide and Analog-6 on the cell morphology and nuclear integrity. HepG2 cells were treated with an increasing concentration of Analog-6 for 48 h and then stained by Hoechst 33342 (a DNA fluorescent dye). The effect of Galaxamide on HepG2 cells was used as a control. Noting that Hoechst 33342 is a DNA fluorescent dye, the fluorescently-stained DNA presents a blue color under the fluorescence microscope.
# HepG2 cells were seeded in 6-well tissue culture plates at a concentration of 1 × 10^5 cells/well. Galaxamide and its analogs with a concentration of 0, 5, 10 and 15 µg/mL were added to the cell cultures and incubated for 48 h. After that, cells were fixed with 3.7% of paraformaldehyde for 10 min and washed three times with PBS. Then, Hoechst 33342 was added for cell staining, then visualized using a fluorescent microscope.
# [7] = test system: cleaved caspase-3; test: Western blot, cleaved caspase-3 expression; format: cell-based, human; settings: HepG2, 15 µg/mL, 48 h
# Method: (§3) There are two major pathways involved in cells apoptosis: the mitochondria-mediated intrinsic pathway and the death receptor-mediated extrinsic pathway. To elucidate the possible mechanism of the apoptotic effects of Analog-6, Western blot experiments were performed. HepG2 cells were treated with 0, 5, 10 and 15 µg/mL Analog-6 for 48 h, and then expression of cleaved caspase-3, caspase-9 and poly(ADP-ribose) polymerase (PARP) was quantified, results are shown in Figure 6.
# (§4) Target proteins were first extracted using Radio-Immunoprecipitation Assay (RIPA) buffer and quantified by the Bradford method. Then, proteins were transferred to a polyvinylidene difluoride (PVDF) membrane, and the membrane was blocked with 5% non-fat milk for 1 h and incubated with a primary antibody (Cell Signaling Technology, Danvers, MA, USA, rabbit monoclonal antibody, 1:1000) at 4 °C overnight. After that, the membrane was washed two times with TBST buffer (Tris-buffered saline with 0.1% Tween-20) and incubated with a secondary antibody (goat-anti-rabbit horseradish peroxidase (HRP)-conjugated 1:15,000) for 1 h under room temperature. Finally, the membrane was washed three times with TBST, and the intensity of the specific immunoreactive bands was detected by enhanced chemiluminescence.
# [8] = test system: caspase-9; test: Western blot, caspase-9 expression; format: cell-based, human; settings: HepG2, 15 µg/mL, 48 h
# Method: as §3, §4
# [9] = test system: HepG2 cells; test: Annexin V-FITC / PI dual staining, flow cytometry (apoptosis); format: cell-based, human; settings: 48 h
# Method: To further study the apoptotic mechanism of Analog-6, the Annexin V-fluorescein isothiocyanate (FITC) and propidium iodide (PI) dual staining method was used. Briefly, HepG2 cells were treated with 0, 5, 10 and 15 µg/mL Analog-6 for 48 h. Then, cells were washed several times with PBS and stained by dual staining of two fluorescent dyes, Annexin V-FITC and PI, and analyzed by flow cytometry. Results are shown in Figure 5, where HepG2 cells exposed to Galaxamide were used as the control. Note that Q1, Q2, Q3 and Q4 in the figure represent four quadrants of necrotic cells, late apoptotic cells, normal cells and early apoptotic cells, respectively.
# as §2
# [10] = test system: poly(ADP-ribose) polymerase (PARP); test: Western blot, cleaved PARP expression; format: cell-based, human; settings: HepG2, 15 µg/mL, 48 h
# Method: as §3, §4
# [11] = test system: human normal liver cell line L02; settings: cited from earlier work
# From the text: In our previous work, we synthesized several Galaxamide analogs and tested their cytotoxicity on a normal cell line (human normal liver cell line L02) and a broad range of cancerous cell lines in vitro.
# [12] = test system: human renal cell carcinoma GRC-1; settings: in vitro, GRC-1 cell line; cited from earlier work
# From the text: (§5) In our initial work, a novel cyclic-pentapeptide named Galaxamide was isolated from a marine algae Galaxaura filamentosa collected from Xisha Island in the South China Sea. Galaxamide is a cyclic-pentapeptide composed of five L-leucines, including two N-methylated ones. N-methylated amino acid is an important component endowing the anticancer potential to the cyclopeptides.
# [13] = test system: human hepatocellular carcinoma HepG2; settings: in vitro, HepG2 cell line; cited from earlier work
# From the text: as §5
structure (smiles),measurement,setting,value
"CC(C)C[C@@H]1NC(=O)[C@H](CC(C)C)N(C)C(=O)[C@H](CC(C)C)NC(=O)[C@H](CC(C)C)N(C)C(=O)[C@H](Cc2ccccc2)NC1=O [Analog-1, Cyclo(Me-Leu-Leu-Phe-Me-Leu-Leu)]","IC50 (µg/mL) in Different Cell Lines, MCF-7",[1],13.03 ± 0.33 µg/mL
same,"IC50 (µg/mL) in Different Cell Lines, Hela",[2],6.85 ± 0.26 µg/mL
same,"IC50 (µg/mL) in Different Cell Lines, MDA-MB-435",[3],9.76 ± 0.18 µg/mL
same,"IC50 (µg/mL) in Different Cell Lines, HepG2",[4],5.85 ± 0.13 µg/mL
"CC(C)C[C@@H]1NC(=O)[C@H](CC(C)C)N(C)C(=O)[C@H](CC(C)C)NC(=O)[C@H](CC(C)C)N(C)C(=O)[C@@H](Cc2ccccc2)NC1=O [Analog-2, Cyclo(Me-Leu-Leu-D-Phe-Me-Leu-Leu)]","IC50 (µg/mL) in Different Cell Lines, MCF-7",[1],9.64 ± 0.27 µg/mL
same,"IC50 (µg/mL) in Different Cell Lines, Hela",[2],4.95 ± 0.18 µg/mL
same,"IC50 (µg/mL) in Different Cell Lines, MDA-MB-435",[3],9.5 ± 0.32 µg/mL
same,"IC50 (µg/mL) in Different Cell Lines, HepG2",[4],4.56 ± 0.22 µg/mL
"CC(C)C[C@@H]1NC(=O)[C@H](CC(C)C)N(C)C(=O)[C@H](CC(C)C)NC(=O)[C@@H](CC(C)C)N(C)C(=O)[C@H](Cc2ccccc2)NC1=O [Analog-3, Cyclo(Me-Leu-Leu-Phe-Me-D-Leu-Leu)]","IC50 (µg/mL) in Different Cell Lines, MCF-7",[1],18.16 ± 0.33 µg/mL
same,"IC50 (µg/mL) in Different Cell Lines, Hela",[2],4.39 ± 0.26 µg/mL
same,"IC50 (µg/mL) in Different Cell Lines, MDA-MB-435",[3],12.6 ± 0.29 µg/mL
same,"IC50 (µg/mL) in Different Cell Lines, HepG2",[4],7.71 ± 0.11 µg/mL
"CC(C)C[C@@H]1NC(=O)[C@H](CC(C)C)N(C)C(=O)[C@@H](CC(C)C)NC(=O)[C@H](CC(C)C)N(C)C(=O)[C@H](Cc2ccccc2)NC1=O [Analog-4, Cyclo(Me-Leu-Leu-Phe-Me-Leu-D-Leu)]",G0/G1 cells,"[5]; HepG2, 5 µg/mL",70.5%
same,G2/M cells,"[5]; HepG2, 5 µg/mL",9.33%
same,S cells,"[5]; HepG2, 5 µg/mL",20.2%
same,Sub-G1 cells,"[5]; HepG2, 5 µg/mL",1.78%
same,G0/G1 cells,"[5]; HepG2, 10 µg/mL",64.2%
same,G2/M cells,"[5]; HepG2, 10 µg/mL",12.9%
same,S cells,"[5]; HepG2, 10 µg/mL",22.9%
same,Sub-G1 cells,"[5]; HepG2, 10 µg/mL",7.1%
same,G0/G1 cells,"[5]; HepG2, 15 µg/mL",67.6%
same,G2/M cells,"[5]; HepG2, 15 µg/mL",5.91%
same,S cells,"[5]; HepG2, 15 µg/mL",26.5%
same,Sub-G1 cells,"[5]; HepG2, 15 µg/mL",35.5%
same,"IC50 (µg/mL) in Different Cell Lines, MCF-7",[1],8.62 ± 0.26 µg/mL
same,"IC50 (µg/mL) in Different Cell Lines, Hela",[2],4.2 ± 0.32 µg/mL
same,"IC50 (µg/mL) in Different Cell Lines, MDA-MB-435",[3],7.67 ± 0.18 µg/mL
same,"IC50 (µg/mL) in Different Cell Lines, HepG2",[4],7.2 ± 0.15 µg/mL
"CC(C)C[C@@H]1NC(=O)[C@@H](CC(C)C)N(C)C(=O)[C@H](CC(C)C)NC(=O)[C@H](CC(C)C)N(C)C(=O)[C@H](Cc2ccccc2)NC1=O [Analog-5, Cyclo(Me-D-Leu-Leu-Phe-Me-Leu-Leu]","IC50 (µg/mL) in Different Cell Lines, MCF-7",[1],15.21 ± 0.29 µg/mL
same,"IC50 (µg/mL) in Different Cell Lines, Hela",[2],7.4 ± 0.33 µg/mL
same,"IC50 (µg/mL) in Different Cell Lines, MDA-MB-435",[3],20.43 ± 0.23 µg/mL
same,"IC50 (µg/mL) in Different Cell Lines, HepG2",[4],10.72 ± 0.32 µg/mL
"CC(C)C[C@@H]1NC(=O)[C@H](CC(C)C)N(C)C(=O)[C@H](Cc2ccccc2)NC(=O)[C@@H](CC(C)C)NC(=O)[C@H](CC(C)C)N(C)C1=O [Analog-6, Cyclo(Me-Leu-D-Leu-Phe-Me-Leu-Leu)]",nuclei morphology after Hoechst 33342 staining,[6],severely damaged
same,increased fold of cleaved caspase-3 expression,[7],3.4 fold
same,increased fold of caspase-9 expression,[8],3.3 fold
same,"Q4, early apoptotic cells","[9]; HepG2, 5 µg/mL",7.3%
same,"Q4, early apoptotic cells","[9]; HepG2, 10 µg/mL",16.9%
same,"Q4, early apoptotic cells","[9]; HepG2, 15 µg/mL",49.4% and ~50%
same,G0/G1 cells,"[5]; HepG2, 5 µg/mL",61.5%
same,G2/M cells,"[5]; HepG2, 5 µg/mL",21.6%
same,S cells,"[5]; HepG2, 5 µg/mL",16.9%
same,Sub-G1 cells,"[5]; HepG2, 5 µg/mL",3.30%
same,G0/G1 cells,"[5]; HepG2, 10 µg/mL",56.8%
same,G2/M cells,"[5]; HepG2, 10 µg/mL",14.4%
same,S cells,"[5]; HepG2, 10 µg/mL",28.8%
same,Sub-G1 cells,"[5]; HepG2, 10 µg/mL",5.36%
same,G0/G1 cells,"[5]; HepG2, 15 µg/mL",88.6%
same,G2/M cells,"[5]; HepG2, 15 µg/mL",4.22%
same,S cells,"[5]; HepG2, 15 µg/mL",7.18%
same,Sub-G1 cells,"[5]; HepG2, 15 µg/mL",67.9% and 68%
same,"IC50 (µg/mL) in Different Cell Lines, MCF-7",[1],8.15 ± 0.18 µg/mL
same,"IC50 (µg/mL) in Different Cell Lines, Hela",[2],3.42 ± 0.25 µg/mL
same,"IC50 (µg/mL) in Different Cell Lines, MDA-MB-435",[3],6.76 ± 0.22 µg/mL
same,"IC50 (µg/mL) in Different Cell Lines, HepG2",[4],4.1 ± 0.20 µg/mL
same,increased fold of PARP expression,[10],6.8 fold
CC(C)C[C@@H]1NC(=O)[C@H](CC(C)C)N(C)C(=O)[C@H](CC(C)C)NC(=O)[C@H](CC(C)C)N(C)C(=O)[C@H](CC(C)C)NC1=O [Galaxamide] (cyclo(LL[NMeL]L[NMeL])),nuclei morphology after Hoechst 33342 staining,[6],slight shrinking of nuclei
same,"IC50, cytotoxicity on normal L02",[11],> 40 µg/mL
same,"Q4, early apoptotic cells","[9]; HepG2, 5 µg/mL",1.8%
same,"Q4, early apoptotic cells","[9]; HepG2, 10 µg/mL",10.6%
same,"Q4, early apoptotic cells","[9]; HepG2, 15 µg/mL",12.1%
same,G0/G1 cells,"[5]; HepG2, 5 µg/mL",71.2%
same,G2/M cells,"[5]; HepG2, 5 µg/mL",9.18%
same,S cells,"[5]; HepG2, 5 µg/mL",19.6%
same,Sub-G1 cells,"[5]; HepG2, 5 µg/mL",1.30%
same,G0/G1 cells,"[5]; HepG2, 10 µg/mL",73.7%
same,G2/M cells,"[5]; HepG2, 10 µg/mL",9.03%
same,S cells,"[5]; HepG2, 10 µg/mL",17.2%
same,Sub-G1 cells,"[5]; HepG2, 10 µg/mL",8.81%
same,G0/G1 cells,"[5]; HepG2, 15 µg/mL",70.8%
same,G2/M cells,"[5]; HepG2, 15 µg/mL",9.46%
same,S cells,"[5]; HepG2, 15 µg/mL",19.8%
same,Sub-G1 cells,"[5]; HepG2, 15 µg/mL",13.1%
same,"IC50, antiproliferative activity, GRC-1",[12],4.26 µg/mL
same,"IC50, antiproliferative activity, HepG2",[13],4.63 µg/mL
